Measurements published in patent publication US20210130789A1, “METHODS OF STROMAL CELL EXPANSION, USES AND MATERIALS RELATED THERETO” (CITY OF HOPE, priority 2019, published 2021).

Assays:
[1] = test system: IPTD-MSCs and islet cells; assay: TSG6 and VEGF expression in cells cultured under normoxic condition; assay type: cell-based, human; conditions: normoxic condition (5% CO2, 21% O2)
Text: (§1) Furthermore, DMOG protected the human islets and MSC from hypoxia by inhibiting Hypoxia-inducible Factor Prolyl Hydroxylase (HIF-Phase) resulted into augmentation of certain transcription factor(s) associated that could be highly beneficial for the islet and cell survival and function. Islets in particular are oxygen sensitive and when oxygen demand exceeds the supply, the HIF pathway is triggered to adapt for hypoxic conditions as a result of inactivation of HIF-Phase, an enzyme that contributes to degradation of HIF-1α. Thus, inhibiting HIF-Phase enzyme activity leads to increased HIF-1α protein in cells. Up-regulation of HIF-1α at transcriptional and translational levels leads to production of erythropoietin (EPO) and other proteins, including glycolytic enzyme, glucose transporter-1 (Glut-1) and vascular endothelial growth factor (VEGF). These factors are important to protect islets from cytokine induced cell death and also potentiate islet function, survival, and proliferation.

IPTD-MSCs [2] = assay: Quantitative real-time PCR of IPTD-MSCs treated in vitro with TNF-α and DMOG; assay type: cell-based, human; conditions: 24 hours; TNF-α 10 ng/ml and/or DMOG 1 mM; compared to control
Protocol: Recombinant human TNF-α protein (R&D Systems, Minneapolis, Minn.) was reconstituted in research-grade water (Hospira, Lake Forest, Ill.) to a concentration of 100 ng/mL, aliquoted and stored at −20° C. Dimethyloxallyl glycine (DMOG; Cayman Chemicals, Ann Arbor, Mich.) was dissolved in water to yield a stock solution of 57.1 mM, aliquoted (100 μL) and stored at −80° C. IPTD-MSCs were incubated in T-25 flasks in 5 ml of CMRL-1066 medium supplemented with 5% hPL until ˜50% confluent. Cells were cultured for 24 hours in CMRL 1066 medium, or medium containing 10 ng/ml TNF-α, 1 mM DMOG or 1 mM DMOG and 10 ng/ml TNF-α. Following treatment, cells were collected in 1.7-ml Eppendorf tubes and stored in RLT buffer (Qiagen, Germantown, Md.) at −80° C. for future preparation of cDNA.
The TaqMan Gene Expression Assay system (ThermoFisher Scientific) was used to quantify β-ACTIN, TSG-6, NRF2, and VEGF mRNA levels. Total RNA was extracted using a Qiagen Mini Kit (Cat. No. 51306) and converted into cDNA. Real-time quantitative PCR was run in duplicate on a ViiA™ 7 Real-Time PCR System with a 384-well block (ThermoFisher Scientific). Thermal cycles were programmed for 20 seconds at 95° C. for the initial denaturation, followed by 45 cycles of […] at 95° C. for denaturation, 30 seconds at 60° C. for annealing, 60 seconds at 72° C. for extension, and a final extension at 72° C. for 10 minutes. All PCR runs were performed with negative (water) and positive controls. β-ACTIN was used as an internal control to quantify relative gene expression.

IPTD-MSCs [3] = assay: Cytokine assay (Luminex) of supernatants from treated IPTD-MSCs; assay type: cell-based, human
Protocol: Supernatants from cells cultured for 24 hours under various conditions (medium alone, or medium plus DMOG, TNF-α, or DMOG+TNF-α) were collected, and cytokine analysis performed using a Luminex assay kit (Bio-Rad, Hercules, Calif.) according to the manufacturer's protocol. The following growth factors/cytokines were measured: VEGF, IL-6, IL-8, MMP-9, MCP-1, MMP-2, IL-4, IL-10 and […]. Sample were measured in duplicate.

[4] = test system: Human umbilical vein endothelial cells (HUVECs); assay: In vitro angiogenesis assay: endothelial tube formation with IPTD-MSC conditioned media; assay type: cell-based; conditions: 24 hours, media from treated IPTD-MSCs
Protocol: Angiogenic capacity was assessed by quantifying endothelial tube formation. Human umbilical vein endothelial cells (HUVECs) (Cell Applications Inc., San Diego, Calif.; Cat #200p-05n) between passages 2 to 6 were cultured in a standard medium. Cells (1×10^5 cells/well) were plated in 24-well plates (Fisher, Cat #930186) coated with Matrigel (Corning, Cat #356234), and incubated for 30 minutes to allow cell attachment. Supernatants (150 μL/well) from control and stimulated IPTD-MSCs (DMOG, TNF-α, or DMOG+TNF-α) were added to obtain a total volume of 300 μL per well. Plates were then incubated at 37° C., 5% CO2 for 24 hours. At 4 and 24 hours, the wells were visualized using a Leica microscope and representative photographic images were obtained. Total endothelial tube number and tube length were determined using ImageJ software (NIH, Bethesda, Md.).

human islets = assay: mRNA levels in human islets treated with DMOG; assay type: cell-based; conditions: DMOG 1 mM
Protocol: (§2) Islets of high and low purity, and mesenchymal stem cells (MSCs) as a potential source of human islets, isolated from human donor pancreata were treated with the PHD inhibitor DMOG. Alterations in gene expression, cell proliferation, survival and metabolism were characterized.
(§3) As shown in FIGS. 10-12, pancreatic-derived human islets and MSCs were treated with DMOG or control at several concentrations and time intervals. The levels of HIF-1a were increased and PHD decreased in DMOG-treated versus control cells, and in a dose-dependent manner.

pancreatic ductal cells = assay: mRNA levels in pancreatic ductal cells treated with DMOG; assay type: cell-based, human; conditions: DMOG 1 mM, one donor
Protocol: One donor was tested. The data are expressed as mean±SD.

[5] = test system: pancreatic-derived human islets and MSCs; assay: HIF-1a, PHD and survival gene levels in DMOG-treated islets and MSCs; assay type: cell-based
Protocol: as §2, §3

[6] = test system: pancreatic-derived human islets and MSCs; assay: Cytokine injury and proliferative capacity of DMOG-treated islets and MSCs in vitro; assay type: cell-based
Protocol: as §2, §3

diabetic mice = assay: Engraftment of DMOG-treated islets in diabetic mice; assay type: in vivo
human islets and MSC = assay: Protection of human islets and MSC from hypoxia; assay type: cell-based
Text: as §1

[7] = culture medium after 24 hours, compared to control
[8] = DMOG-treated versus control cells, dose-dependent

## COC(=O)CNC(=O)C(=O)OC [DMOG, dimethyloxalylglycine]
[1]; IPTD-MSCs and islet cells
  VEGF upregulated: 51 fold
[1]; IPTD-MSCs and islet cells for DMOG, MSC for TNF-α plus DMOG
  TSG6 upregulated: 31 fold
IPTD-MSCs [2]
  NRF2 expression: significantly increased
  VEGF expression: significantly increased
IPTD-MSCs [3]; conditioned media after 24 hours
  Levels of MCP-1: reduced
IPTD-MSCs [3]; [7]
  secretion of IL-4: enhanced the secretion
  secretion of IL-6: enhanced the secretion
  secretion of IL-8: enhanced the secretion
  secretion of VEGF: enhanced the secretion
[4]
  numbers of cell tubes: 21.0±2.0
  tube length: 28.6±9.9 mm
Human islets; human islets Fr 1, purity >70%
  mRNA levels of VEGF gene: increased mRNA levels
Human islets; human islets Fr 2, purity <50%
  mRNA levels of EPO gene: increased mRNA levels
  mRNA levels of INS gene: increased mRNA levels
  mRNA levels of PDX1 gene: increased mRNA levels
  mRNA levels of TSG-6 gene: increased mRNA levels
  mRNA levels of VEGF gene: increased mRNA levels
Pancreatic ductal cells
  mRNA levels of TSG-6 gene: increased mRNA levels
  mRNA levels of VEGF gene: increased mRNA levels
[5]; DMOG treatment of islets and MSCs
  key survival genes (EPO, glycolytic enzyme, Glut-1, VEGF): upregulation
[5]; [8]
  levels of HIF-1a: increased
  levels of PHD: decreased
[6]
  proliferative capacity: higher proliferative capacity
  susceptibility to cytokine injury: less susceptible
Diabetic mice
  engraftment: increased engraftment
  glucose homeostasis: improved glucose homeostasis
Human islets and MSC
  protection from hypoxia: protected

## TNF-α
IPTD-MSCs [2]
  TSG-6 gene expression levels: significantly increased
IPTD-MSCs [3]; culture medium after 24 hours, compared to controls
  effect on any of the cytokines examined: did not have an effect
[4]
  numbers of cell tubes: no effect
  tube length: no effect
